From paper PMC7926623 (Marine Drugs, 2021)

Biological target: rat α6/α3β2β3 nAChR (Rattus norvegicus, UniProt P04757+P12390+P43143)
Assay type: cell-based

Chain of rat α6/α3β2β3 nAChR (P04757 whole entry, looked up): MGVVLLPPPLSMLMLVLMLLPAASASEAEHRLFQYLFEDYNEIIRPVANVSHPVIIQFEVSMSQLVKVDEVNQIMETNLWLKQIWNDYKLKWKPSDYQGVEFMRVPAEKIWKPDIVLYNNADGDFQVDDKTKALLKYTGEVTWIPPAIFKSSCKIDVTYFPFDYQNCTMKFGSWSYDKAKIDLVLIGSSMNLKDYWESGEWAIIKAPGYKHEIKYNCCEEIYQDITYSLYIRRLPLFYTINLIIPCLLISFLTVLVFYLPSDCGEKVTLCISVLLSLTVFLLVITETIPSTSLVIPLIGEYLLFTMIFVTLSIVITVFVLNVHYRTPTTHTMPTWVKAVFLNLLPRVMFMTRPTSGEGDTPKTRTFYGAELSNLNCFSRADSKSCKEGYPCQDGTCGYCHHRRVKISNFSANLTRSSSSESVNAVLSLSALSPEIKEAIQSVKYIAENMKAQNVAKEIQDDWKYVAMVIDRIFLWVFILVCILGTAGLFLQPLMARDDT
Chain of rat α6/α3β2β3 nAChR (P12390 whole entry, looked up): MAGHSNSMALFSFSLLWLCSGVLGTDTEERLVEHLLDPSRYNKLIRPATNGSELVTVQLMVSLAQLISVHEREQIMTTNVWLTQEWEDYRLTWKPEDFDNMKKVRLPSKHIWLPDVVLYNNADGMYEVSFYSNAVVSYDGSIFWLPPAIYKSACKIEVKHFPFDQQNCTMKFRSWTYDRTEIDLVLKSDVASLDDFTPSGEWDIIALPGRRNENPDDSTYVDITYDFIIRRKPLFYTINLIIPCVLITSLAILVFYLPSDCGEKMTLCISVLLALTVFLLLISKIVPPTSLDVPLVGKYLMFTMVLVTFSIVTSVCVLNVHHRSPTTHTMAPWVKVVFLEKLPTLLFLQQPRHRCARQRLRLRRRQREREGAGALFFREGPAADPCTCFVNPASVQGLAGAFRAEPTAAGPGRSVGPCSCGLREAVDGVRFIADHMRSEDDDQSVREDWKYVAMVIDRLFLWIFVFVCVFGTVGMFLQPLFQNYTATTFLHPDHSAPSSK
Chain of rat α6/α3β2β3 nAChR (P43143 whole entry, looked up): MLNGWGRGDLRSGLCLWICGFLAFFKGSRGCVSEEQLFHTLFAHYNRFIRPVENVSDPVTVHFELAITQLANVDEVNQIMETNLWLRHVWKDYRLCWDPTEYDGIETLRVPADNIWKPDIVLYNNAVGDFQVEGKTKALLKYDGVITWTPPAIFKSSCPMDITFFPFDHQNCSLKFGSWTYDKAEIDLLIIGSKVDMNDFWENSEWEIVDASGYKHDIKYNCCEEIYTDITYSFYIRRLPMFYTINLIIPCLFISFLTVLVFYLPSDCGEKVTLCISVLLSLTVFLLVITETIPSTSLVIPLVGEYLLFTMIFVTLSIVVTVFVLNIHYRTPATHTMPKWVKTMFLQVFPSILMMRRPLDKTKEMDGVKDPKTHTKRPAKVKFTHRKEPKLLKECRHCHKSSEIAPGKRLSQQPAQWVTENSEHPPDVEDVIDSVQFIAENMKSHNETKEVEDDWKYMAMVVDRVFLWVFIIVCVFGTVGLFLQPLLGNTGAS

Question: With α-Conotoxin TxIB as the substance, how does the “inhibition on α6/α3β2β3 nAChR” value read?
Answer: Its value is “about 88%”.
